Measurements reported in patent publication US20180228124A1, “ANIMAL LITTER COMPRISING CINNAMIC AND/OR ROSMARINIC COMPOUNDS” (The Clorox Company, priority 2017, published 2018).

Tested on: ammonia formation
Assay: Ammonia formation in sodium bentonite clay litter contacted with feline urine, monitored daily
Conditions: for ammonia at day 11 / inhibition of ammonia formation: FIG. 2; for Day 11 NH3 PPM (mean): treatment dosed at 0.5 g per 100 g of litter, FIG. 3 / FIG. 4 data; for ammonia formation versus virgin clay litter control: 0.5 g per 100 g of litter, FIG. 3; for inhibition of ammonia formation: 0.02 g per 100 g of litter (0.02% by weight)
Procedure: The efficacy of various anti-oxidant rich spices was tested for ability to inhibit ammonia growth in litter compositions. FIG. 1 illustrates the results for each test that was performed. Each litter substrate included sodium bentonite clay. A control included virgin clay, with no added spice. Each of the other samples tested included a particular spice, dosed onto or into the clay litter substrate at 1.5 g per 100 g of clay substrate (a 1.5% loading of each of the tested spices). The tested spices were cinnamon, peppermint, rosemary, rubbing sage, spearmint, star anise, sumac, thyme, and turmeric. A control was also tested that included no spice at all. Each sample was contacted with 20 mL of feline urine, and then monitored over a period of 11 days, with the mean PPM of ammonia recorded for each day.
Each of the treatments tested in FIG. 3 were dosed at 0.5 g per 100 g of litter. Many of the other treatments tested were similarly dosed, unless stated otherwise (i.e., 0.5 g per 100 g of litter).

O=C(O)/C=C/c1ccc(O)c(O)c1 [Caffeic acid, Caffeic Acid]
ammonia at day 11 (0.5% caffeic acid (0.5 g per 100 g of litter)): less than 60 ppm
ammonia at day 11 (1% caffeic acid (1 g per 100 g of litter)): less than 40 ppm
Day 11 NH3 PPM (mean): 47.894 PPM

O=C/C=C/c1ccccc1 [Cinnamaldehyde]
Day 11 NH3 PPM (mean): 4.150 PPM

CCOC(=O)/C=C/c1ccccc1 [Ethyl cinnamate, Ethyl Cinnamate, reference compound]
ammonia formation versus virgin clay litter control: promotes ammonia (odor) formation
Day 11 NH3 PPM (mean): 126.324 PPM

COc1cc(/C=C/C(=O)O)ccc1O [Ferulic acid, Ferulic Acid]
Day 11 NH3 PPM (mean): 62.182 PPM

O=C(O)CCc1ccccc1 [Hydrocinnamic acid]
Day 11 NH3 PPM (mean): 45.720 PPM

O=C(/C=C/c1ccc(O)c(O)c1)O[C@H](Cc1ccc(O)c(O)c1)C(=O)O [Rosmarinic acid, Rosmarinic Acid]
efficacy of odor inhibition compared with 0.44% borate treated litter (0.5% rosmarinic acid, FIG. 4): comparable in efficacy to the borate treated litter substrate
Day 11 NH3 PPM (mean): 20-30 PPM

COc1cc(/C=C/C(=O)O)cc(OC)c1O [Sinapic acid, Sinapic Acid]
Day 11 NH3 PPM (mean): 38.428 PPM

O=C(O)/C=C/c1ccccc1 [Trans-cinnamic acid, Trans-Cinnamic Acid]
Day 11 NH3 PPM (mean): 4.493 PPM

O.O.O.O.O.O.O.O.O.O.O.O.O=S(=O)([O-])[O-].O=S(=O)([O-])[O-].[Al+3].[K+] [alum, hydrated potassium aluminum sulfate, reference compound]
ammonia formation versus virgin clay litter control: better than the virgin clay litter control

CC(C)c1cc2c(c(O)c1O)[C@@]1(C(=O)O)CCCC(C)(C)[C@@H]1CC2 [carnosic acid, Carnosic Acid]
inhibition of ammonia formation: significant inhibition of ammonia formation

O=C(O)/C=C/c1ccc(O)cc1 [p-coumaric acid, p-Coumaric Acid]
Day 11 NH3 PPM (mean): 26.199 PPM

CC(O)C(=O)[O-].[Ag+] (stereo not shown) [silver lactate, reference compound]
ammonia formation versus virgin clay litter control: better than the virgin clay litter control

O=C([O-])[O-].O=C([O-])[O-].OO.OO.OO.[Na+].[Na+].[Na+].[Na+] [sodium percarbonate, reference compound]
ammonia formation versus virgin clay litter control: better than the virgin clay litter control

C[C@H]1[C@H](C)CC[C@]2(C(=O)O)CC[C@]3(C)C(=CC[C@@H]4[C@@]5(C)CC[C@H](O)C(C)(C)[C@@H]5CC[C@]43C)[C@H]12 [ursolic acid, Ursolic Acid]
inhibition of ammonia formation: significant inhibition of ammonia formation

borate [reference compound]
ammonia at day 11 (litter substrate treated with 0.44% borate): 76 ppm
